This passage reports Ki results from US7091222B2, “Imidazole derivatives” (Hoffmann-La Roche Inc., priority 2003, dated 2006).

The assay deals with T1, human mGlu 5a receptor (Homo sapiens, UniProt P41594).
T1 construct: expressed in transfected cells; host or cells: EBNA cells (transient transfection); membrane homogenates
T1 sequence (P41594 21-1180 isoform P41594-2 limits assumed): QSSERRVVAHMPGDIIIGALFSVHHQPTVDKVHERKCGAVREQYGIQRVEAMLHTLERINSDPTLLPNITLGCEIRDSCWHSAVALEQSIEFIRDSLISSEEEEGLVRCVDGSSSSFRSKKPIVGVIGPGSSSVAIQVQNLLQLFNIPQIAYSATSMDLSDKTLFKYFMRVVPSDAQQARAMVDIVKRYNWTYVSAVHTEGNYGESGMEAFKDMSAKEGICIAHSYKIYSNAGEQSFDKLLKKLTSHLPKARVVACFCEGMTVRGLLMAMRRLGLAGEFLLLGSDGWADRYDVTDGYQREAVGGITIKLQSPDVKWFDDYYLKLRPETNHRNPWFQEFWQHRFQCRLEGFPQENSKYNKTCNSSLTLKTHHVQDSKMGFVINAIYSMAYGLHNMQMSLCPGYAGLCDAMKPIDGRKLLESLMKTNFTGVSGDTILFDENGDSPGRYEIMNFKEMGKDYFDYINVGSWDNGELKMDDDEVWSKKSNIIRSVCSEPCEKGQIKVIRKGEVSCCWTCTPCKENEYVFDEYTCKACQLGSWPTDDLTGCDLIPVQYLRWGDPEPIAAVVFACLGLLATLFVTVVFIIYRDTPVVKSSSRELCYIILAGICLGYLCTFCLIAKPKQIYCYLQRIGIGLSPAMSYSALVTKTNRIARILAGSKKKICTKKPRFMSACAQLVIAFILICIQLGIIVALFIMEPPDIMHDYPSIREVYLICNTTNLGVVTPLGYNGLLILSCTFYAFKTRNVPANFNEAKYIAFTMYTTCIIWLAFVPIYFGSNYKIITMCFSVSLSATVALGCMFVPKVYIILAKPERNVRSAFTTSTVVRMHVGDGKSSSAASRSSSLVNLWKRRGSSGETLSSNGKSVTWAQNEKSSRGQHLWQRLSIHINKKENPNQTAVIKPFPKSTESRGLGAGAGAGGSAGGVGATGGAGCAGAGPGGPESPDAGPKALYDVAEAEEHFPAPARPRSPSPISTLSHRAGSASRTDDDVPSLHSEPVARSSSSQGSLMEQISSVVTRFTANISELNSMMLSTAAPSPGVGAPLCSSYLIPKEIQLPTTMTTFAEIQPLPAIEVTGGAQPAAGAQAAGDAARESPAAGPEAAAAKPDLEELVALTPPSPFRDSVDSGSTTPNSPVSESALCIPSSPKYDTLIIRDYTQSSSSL
In words: [3H]MPEP competition binding on membranes of EBNA cells transfected with human mGlu 5a receptor. To be noted: competition with [3H]MPEP (2 nM), 1 h at 4° C., membranes of transiently transfected EBNA cells; Ki=IC50/[1+L/Kd]. The procedure: For binding experiments, cDNA encoding human mGlu 5a receptor was transiently transfected into EBNA cells using a procedure described by Schlaeger and Christensen [Cytotechnology 15:1–13 (1998)]. Cell membrane homogenates were stored at −80° C. until the day of assay where upon they were thawed and resuspended and polytronised in 15 mM Tris-HCl, 120 mM NaCl, 100 mM KCl, 25 mM CaCl2, 25 mM MgCl2 binding buffer at pH 7.4 to a final assay concentration of 20 μg protein/well.
Saturation isotherms were determined by addition of twelve [^3H]MPEP concentrations (0.04–100 nM) to these membranes (in a total volume of 200 μl) for 1 h at 4° C. Competition experiments were performed with a fixed concentration of [^3H]MPEP (2 nM) and IC50 values of test compounds evaluated using 11 concentrations (0.3–10,000 nM). Incubations were performed for 1 h at 4° C.
At the end of the incubation, membranes were filtered onto unifilter (96-well white microplate with bonded GF/C filter preincubated 1 h in 0.1% PEI in wash buffer, Packard BioScience, Meriden, Conn.) with a Filtermate 96 harvester (Packard BioScience) and washed 3 times with cold 50 mM Tris-HCl, pH 7.4 buffer. Nonspecific binding was measured in the presence of 10 μM MPEP. The radioactivity on the filter was counted (3 min) on a Packard Top-count microplate scintillation counter with quenching correction after addition of 45 μl of microscint 40 (Canberra Packard S. A., Zürich, Switzerland) and shaking for 20 min.
The inhibition (antagonists) curves were fitted with a four parameter logistic equation giving IC50, and Hill coefficient using an iterative non linear curve fitting software (Xcel fit).
For binding experiments the Ki values of the compounds tested are given. the Ki value is defined by the following formula: Ki=IC50/[1+L /Kd] in which the IC50 values are those concentrations of the compounds tested which cause 50% inhibition of the competing radioligand ([^3H]MPEP). L is the concentraion of radioligand used in the binding experiment and the Kd value of the radioligand is empirically determined for each batch of membranes prepared.
The Ki is the equilibrium dissociation constant of an inhibitor or competing ligand from its target. Take `Cc1cc(C#Cc2cn(C(C)C)c(C)n2)ccn1` [Example 2, 4-(1-Isopropyl-2-methyl-1H-imidazol-4-ylethynyl)-2-methyl-pyridine]: the inhibitory constant (Ki) was found to be 68 nM.
The same measure for `Cc1cc(C#Cc2cn(CC3CC3)c(C)n2)ccn1` [Example 4, 4-(1-Cyclopropylmethyl-2-methyl-1H-imidazol-4-ylethynyl)-2-methyl-pyridine]: 38 nM.
On to `Cc1cc(C#Cc2cn(CC#N)c(C)n2)ccn1` [Example 6, [2-Methyl-4-(2-methyl-pyridin-4-ylethynyl)-imidazol-1-yl]-acetonitrile], for which the Ki worked out at 33 nM.
In the case of `COCCn1cc(C#Cc2ccnc(C)c2)nc1C` [Example 7, 4-[1-(2-Methoxy-ethyl)-2-methyl-1H-imidazol-4-ylethynyl]-2-methyl-pyridine] it was 122 nM; in that of `Cc1nc(C#Cc2ccnc(Cl)c2)cn1CC(C)C` [Example 8, 2-Chloro-4-(1-isobutyl-2-methyl-1H-imidazol-4-ylethynyl)-pyridine], 191 nM.
In the case of `Cc1nc(C#Cc2ccnc(Cl)c2)cn1C` [Example 12, 2-Chloro-4-(1,2-dimethyl-1H-imidazol-4-ylethynyl)-pyridine], the Ki came to 49 nM.
The same measure for `Cc1cc(C#Cc2cn(C)c(C3CC3)n2)ccn1` [Example 13, 4-(2-Cyclopropyl-1-methyl-1H-imidazol-4-ylethynyl)-2-methyl-pyridine]: 28 nM.
The same measure for `Cc1cc(C#Cc2cn(CC(F)(F)F)c(C)n2)ccn1` [Example 21, 2-Methyl-4-[2-methyl-1-(2,2,2-trifluoro-ethyl)-1H-imidazol-4-ylethynyl]-pyridine]: 54 nM; for `Cc1nc(C#Cc2ccnc(Cl)c2)cn1CC(F)(F)F` [Example 22, 2-Chloro-4-[2-methyl-1-(2,2,2-trifluoro-ethyl)-1H-imidazol-4-ylethynyl]-pyridine]: 95 nM.
